Consider 14 compounds from US9198420B2, “Rodenticidal norbormide analogues” (priority 2012, dated 2015).

Molecules are shown by their SMILES. Like-named read-outs stand apart in the source and are kept apart here. Marks after values point to notes of the source that are not given here.

In one data set the test system is rat caudal artery. Put plainly: Rat caudal artery ring contractile force (vasoconstrictory activity). Also noted: species or system rat (male Wistar). The following applies: for Emax: Table 1, read-out: Vasoconstriction: maximum contractile effect as a % of 90 mM KCl contraction. The method in brief: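 Endothelium-denuded caudal artery rings from male Wistar rats were held at 2 g resting tension in Tyrode solution (37° C, pH 7.35, 95% O2/CO2) and isometric force was recorded. Compounds were tested at 50 μM, with contraction expressed as percent of the 90 mM KCl response.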

The subject of data set [1] is Sprague Dawley rats. Put plainly: Palatability (choice) trial, peanut butter bait. Type of data set: in vivo, rat (Sprague Dawley). The following applies: 2 days.
The subject of data set [2] is Sprague Dawley rats. Put plainly: In vivo lethality, intravenous injection via the tail. Also noted: species or system rat (Sprague Dawley). Conditions: rat. The method, then:
(§1) Sprague Dawley rats (150-200 g) were used to appraise the rodenticidal activity of the compounds put forward for in vivo evaluation. Briefly, prior to administration the compounds were dissolved in 0.2 M hydrochloric acid (5% DMSO overall), to the desired dose, and without delay either injected intravenously, via the tail, or orally gavaged. All treated animals were housed in a quiet room and monitored every minute (i.v) or every 15 min (oral) to verify early signs of toxicity.

Data set [3] has as its system Sprague Dawley rats. Put plainly: In vivo lethality, oral gavage. Also noted: species or system rat (Sprague Dawley). The following applies: rat. As for the experimental part:
as §1

The subject of data set [4] is Sprague Dawley rats. In words: Palatability (no-choice) trial, peanut butter bait. Conditions: po, 1% w/w toxicant in peanut butter bait. Type of data set: in vivo, rat (Sprague Dawley). The text has this:
In the palatability trials, Sprague Dawley rats (ca. 250 g) were presented with 1% w/w compound (n=6) or 0.5% w/w compound (n=5) in a peanut butter bait, following 3 days ‘pre-baiting’ with a peanut butter formulation free of toxicant.

Broadly, the melting point is the temperature, or range, at which the solid turns liquid. Consider `CC(C)(C)C(=O)OCN1C(=O)C2C3C=C(C(O)(c4ccccc4)c4ccccn4)C(C3=C(c3ccccc3)c3ccccn3)C2C1=O` (stereo not drawn) [Compound 8, 5-(α-Hydroxy-α-2-pyridylbenzyl)-N-pivaloyloxymethyl-7-(α-2-pyridylbenzylidene)-5-norbornene-2,3-dicarboximide], for which the melting point was 95 to 98 °C. Further, in the data set on rat caudal artery, the Emax is no less than 132%. Further, in the data set with rat caudal artery (Table 4, pre-cleavage, n = 3), the “Vasoconstriction: maximum contractile effect as a % of 90 mM KCl contraction” value is “≧132%”.
With `CCCC(=O)OCN1C(=O)C2C3C=C(C(O)(c4ccccc4)c4ccccn4)C(C3=C(c3ccccc3)c3ccccn3)C2C1=O` (stereo not drawn) [Compound 9, N-Butanoyloxymethyl-5-(α-hydroxy-α-2-pyridylbenzyl)-7-(α-2-pyridylbenzylidene)-5-norbornene-2,3-dicarboximide], the melting point is 68 to 79 °C. Moreover, the Emax in the data set on rat caudal artery was found to be 86%. For the same compound, the “Vasoconstriction: maximum contractile effect as a % of 90 mM KCl contraction” value in the data set with rat caudal artery (Table 4, pre-cleavage, n = 3) is 86%.
For `O=C(OCN1C(=O)C2C3C=C(C(O)(c4ccccc4)c4ccccn4)C(C3=C(c3ccccc3)c3ccccn3)C2C1=O)c1ccccc1` (stereo not drawn) [Compound 12, N-Benzoyloxymethyl-5-(α-hydroxy-α-2-pyridylbenzyl)-7-(α-2-pyridylbenzylidene)-5-norbornene-2,3-dicarboximide], the melting point fell in the range of 94 to 96 °C. Besides, the Emax in the data set with rat caudal artery was no less than 132%. Further, the “Vasoconstriction: maximum contractile effect as a % of 90 mM KCl contraction” value in the data set on rat caudal artery (Table 4, pre-cleavage, n = 3) is on record as “≧132%”.
Take `COc1ccccc1C(=O)OCN1C(=O)C2C3C=C(C(O)(c4ccccc4)c4ccccn4)C(C3=C(c3ccccc3)c3ccccn3)C2C1=O` (stereo not drawn) [Compound 13, 5-(α-Hydroxy-α-2-pyridylbenzyl)-N-o-methoxybenzoyloxymethyl-7-(α-2-pyridylbenzylidene)-5-norbornene-2,3-dicarboximide]: the melting point is 83 to 88 °C. In the data set on rat caudal artery, the Emax worked out at 90%. Moreover, in the data set on rat caudal artery (Table 4, pre-cleavage, n = 3), the “Vasoconstriction: maximum contractile effect as a % of 90 mM KCl contraction” value is 90%.
Compound `COc1cccc(C(=O)OCN2C(=O)C3C4C=C(C(O)(c5ccccc5)c5ccccn5)C(C4=C(c4ccccc4)c4ccccn4)C3C2=O)c1` (stereo not drawn) [Compound 14, 5-(α-Hydroxy-α-2-pyridylbenzyl)-N-m-methoxybenzoyloxymethyl-7-(α-2-pyridylbenzylidene)-5-norbornene-2,3-dicarboximide] came in with a melting point of 171 to 180 °C. Moreover, the Emax in the data set with rat caudal artery was determined as 0%. Also, in the data set with rat caudal artery (Table 4, pre-cleavage, n = 3), the “Vasoconstriction: maximum contractile effect as a % of 90 mM KCl contraction” value was determined as 0%.
`COc1ccc(C(=O)OCN2C(=O)C3C4C=C(C(O)(c5ccccc5)c5ccccn5)C(C4=C(c4ccccc4)c4ccccn4)C3C2=O)cc1` (stereo not drawn) [Compound 15, 5-(α-Hydroxy-α-2-pyridylbenzyl)-N-p-methoxybenzoyloxymethyl-7-(α-2-pyridylbenzylidene)-5-norbornene-2,3-dicarboximide] registered a melting point of 94 to 112 °C. Also, the Emax with rat caudal artery was 0%. Besides, the “Vasoconstriction: maximum contractile effect as a % of 90 mM KCl contraction” value with rat caudal artery (Table 4, pre-cleavage, n = 3) turned out to be 0%.
Compound `O=C(CCc1ccccc1)OCN1C(=O)C2C3C=C(C(O)(c4ccccc4)c4ccccn4)C(C3=C(c3ccccc3)c3ccccn3)C2C1=O` (stereo not drawn) [Compound 18, N-Dihydrocinnamoyloxymethyl-5-(α-hydroxy-α-2-pyridylbenzyl)-7-(α-2-pyridylbenzylidene)-5-norbornene-2,3-dicarboximide] had a melting point of 89 to 94 °C. In addition, the Emax in the data set on rat caudal artery turned out to be 13%. Further, in the data set with rat caudal artery (Table 4, pre-cleavage, n = 3), the “Vasoconstriction: maximum contractile effect as a % of 90 mM KCl contraction” value turned out to be 13%.
`COc1ccccc1C=CC(=O)OCCN1C(=O)C2C3C=C(C(O)(c4ccccc4)c4ccccn4)C(C3=C(c3ccccc3)c3ccccn3)C2C1=O` (stereo not drawn) [Compound 124, 5-(α-Hydroxy-α-2-pyridylbenzyl)-N-[2′-(2″-methoxycinnamoyloxy)ethyl]-7-(α-2-pyridylbenzylidene)-5-norbornene-2,3-dicarboximide] had a melting point of 101 to 108 °C. The Emax in the data set with rat caudal artery came to 23%.
As to `O=C(C=Cc1ccc(OC(F)(F)F)cc1)OCCN1C(=O)C2C3C=C(C(O)(c4ccccc4)c4ccccn4)C(C3=C(c3ccccc3)c3ccccn3)C2C1=O` (stereo not drawn) [Compound 127, 5-(α-Hydroxy-α-2-pyridylbenzyl)-7-(α-2-pyridylbenzylidene)-N-[2′-(4″-trifluoromethoxycinnamoyloxy)ethyl]-5-norbornene-2,3-dicarboximide], the melting point is 100 to 105 °C. The Emax in the data set with rat caudal artery came to 0%. Moreover, the “Vasoconstriction: maximum contractile effect as a % of 90 mM KCl contraction” value in the data set with rat caudal artery (Table 4, pre-cleavage, n = 3) is given as 0%.
`O=C(C=Cc1ccc([N+](=O)[O-])cc1)OCCN1C(=O)C2C3C=C(C(O)(c4ccccc4)c4ccccn4)C(C3=C(c3ccccc3)c3ccccn3)C2C1=O` (stereo not drawn) [Compound 130, 5-(α-Hydroxy-α-2-pyridylbenzyl)-N-[2′-(4″-nitrocinnamoyloxy)ethyl]-7-(α-2-pyridylbenzylidene)-5-norbornene-2,3-dicarboximide] had a melting point of 105 to 110 °C. In addition, in the data set with rat caudal artery, the Emax is 20%.
For `COc1cc(C=CC(=O)OCCN2C(=O)C3C4C=C(C(O)(c5ccccc5)c5ccccn5)C(C4=C(c4ccccc4)c4ccccn4)C3C2=O)cc(OC)c1OC` (stereo not drawn) [Compound 133, 5-(α-Hydroxy-α-2-pyridylbenzyl)-7-(α-2-pyridylbenzylidene)-N-[2′-(3″,4″,5″-trimethoxycinnamoyloxy)ethyl]-5-norbornene-2,3-dicarboximide], in that order: 109 to 113 °C and 30%.
The compound `O=C(C=Cc1ccc(Cl)c(Cl)c1)OCCN1C(=O)C2C3C=C(C(O)(c4ccccc4)c4ccccn4)C(C3=C(c3ccccc3)c3ccccn3)C2C1=O` (stereo not drawn) [Compound 134, N-[2′-(3″,4″-Dichlorocinnamoyloxy)ethyl]-5-(α-hydroxy-α-2-pyridylbenzyl)-7-(α-2-pyridylbenzylidene)-5-norbornene-2,3-dicarboximide] had a melting point of 99 to 104 °C. For the same compound, in the data set with rat caudal artery, the Emax was 0%. Also, in the data set with rat caudal artery (Table 4, pre-cleavage, n = 3), the “Vasoconstriction: maximum contractile effect as a % of 90 mM KCl contraction” value was 0%.
Turning to `O=C1NC(=O)C2C3C(C(O)(c4ccccc4)c4ccccn4)=CC(C3=C(c3ccccc3)c3ccccn3)C12` (stereo not drawn) [NRB, 5-(α-Hydroxy-α-2-pyridylbenzyl)-7-(α-2-pyridylbenzylidene)-5-norbornene-2,3-dicarboximide, reference compound], the Emax with rat caudal artery amounted to 132%. The “Vasoconstriction: maximum contractile effect as a % of 90 mM KCl contraction” value in the data set with rat caudal artery (Table 5, compounds of formula (III)) is listed as “^aMaximum contractile effect as a % of 90 mM KCl contraction (rat caudal artery); stereoisomeric mixture of NRB = 132%”; in the data set on rat caudal artery (Table 7, compounds of formula (V)), “^aMaximum contractile effect as a % of 90 mM KCl contraction (rat caudal artery); stereoisomeric mixture of NRB = 132%”. In addition, the No of deaths with Sprague Dawley rats [1] (choice of EPA diet (20 g) and bait with 1% w/w toxicant (20 g), n = 2, Table 15) is 5/12; in the data set with Sprague Dawley rats [1] (choice of EPA diet (20 g) and bait with 1% w/w toxicant (20 g), n = 12, Table 14), 2/12; in the data set on Sprague Dawley rats [1] (choice of standard lab pellets (20 g) and bait with 1% w/w toxicant (20 g), n = 12, Table 13), 5/12.
As for `O=C1NC(=O)C2C3C(C(O)(c4ccccc4)c4ccccn4)=CC(C3=C(c3ccccc3)c3ccccn3)C12` (stereo not drawn) [endo-NRB, 5-(α-Hydroxy-α-2-pyridylbenzyl)-7-(α-2-pyridylbenzylidene)-5-norbornene-2,3-dicarboximide, reference compound], the “Vasoconstriction: maximum contractile effect as a % of 90 mM KCl contraction” value in the data set on rat caudal artery (Table 4, pre-cleavage, n = 3) stood at 132%; with rat caudal artery (n = 3, Table 8) it was 132%; in the data set with rat caudal artery (n = 3, pre-cleavage, Table 6) it was 132%. Also, the “In vivo lethality (i.v.)” value with Sprague Dawley rats [2] (10 mg/Kg, n = 2) is on record as “yes^f,g”; in the data set with Sprague Dawley rats [2] (10 mg/Kg, n = 2, Table 6), “yes^e,f”; in the data set with Sprague Dawley rats [2] (20 mg/Kg, n = 2), “yes^f,g”; in the data set with Sprague Dawley rats [2] (20 mg/Kg, n = 2, Table 6) it was “yes^e,f”; in the data set on Sprague Dawley rats [2] (20 mg/Kg, n = 3, Table 8), “yes^b”. The “Time to Death (min)” value in the data set on Sprague Dawley rats [3] (20 mg/Kg, mean time) is reported as 35^d min. Further, in the data set on Sprague Dawley rats [3] (20 mg/Kg, mean time, visual signs of distress consistent with NRB-like symptoms), the “Onset of Symptoms” value worked out at 5 min. Also, the “In vivo lethality (oral)” value in the data set with Sprague Dawley rats [3] (20 mg/Kg, n = 2) is on record as “yes^h,i”; in the data set on Sprague Dawley rats [3] (20 mg/Kg, n = 2, Table 6), “yes^g,h”; in the data set on Sprague Dawley rats [3] (20 mg/Kg, n = 3, Table 8), “yes^c,d”; in the data set on Sprague Dawley rats [3] (40 mg/Kg, n = 2), “yes^h,i”; in the data set on Sprague Dawley rats [3] (40 mg/Kg, n = 2, Table 6), “yes^g,h”; in the data set on Sprague Dawley rats [3] (40 mg/Kg, n = 3, Table 8), “yes^c,d”. Further, the mortality at 1 % with Sprague Dawley rats [4] (n = 6, 3 male and 3 female rats, Table 11, read-out: No of deaths (converted)) is 66.7%; in the data set with Sprague Dawley rats [4] (n = 6, 3 male and 3 female rats, Table 12, read-out: No of deaths (converted)) it was 50%; with Sprague Dawley rats [4] (n = 6, male rats only, Table 10, read-out: No of deaths (converted)), 50%.
